Converted amounts (≈) assume the structure as drawn. Like-named read-outs stand apart in the source and are kept apart here.
How the values were obtained:
Solution Stability Assay = format: physicochemical
Description: Acetonitrile Stock Solution: Acetonitrile Stock Solution of the prodrug was prepared by dissolving 1.5-2.0 mg of weighted compound in 5.0 mL of acetonitrile in a 5 mL volumetric flask.
pH 6.5 Buffer Working Solution: A pH 6.5 Buffer Working Solution of drug was prepared by adding 1.5 mL of the Acetonitrile Stock Solution to 3.5 mL of stability buffer (50 mM potassium phosphate, pH 6.5) in a 10 mL vial, and mixing. Using a 3 mL syringe, ˜3 mL of solution was withdrawn and filtered using the Gelman 0.45 μm syringe filter into a clean 1.5 mL LC vial. This filtered solution will was used to evaluate the prodrug degradation throughout the course of the study. Target concentration: 90-120 μg/mL (70% Aqueous: 30% Acetonitrile)
pH 4.0 Acidic Working Solution: A pH 4.0 Working Solution of drug was prepared by adding 1.5 mL of the Acetonitrile Stock Solution to 3.5 mL of stability buffer (50 mM sodium acetate, pH 4.0) in a 10 mL vial and mixing. Using a 3 mL syringe, ˜3 mL of solution was withdrawn and filtered using the Gelman 0.45 μm syringe filter into a clean 1.5 mL LC vial. This filtered solution was used to evaluate the prodrug degradation throughout the course of the study. Target concentration: 90-120 μg/mL (70% Aqueous: 30% Acetonitrile)
Experimental Methods: Following the sample preparation procedure described above a single sample (n=1) was prepared for each pH condition. The samples were then placed in an HPLC autosampler maintained at 37° C. and samples were analyzed over a 24 h period. Prodrug remaining (%) was reported relative to the initial peak area (t=0 h). In cases where a conversion to parent half-life could be calculated, a t1/2 was generated. Confirmation of the conversion to parent from the prodrug was obtained by LCMS and HPLC analysis of the final timepoint samples.
Typical LC parameters are shown below: • HPLC System: HP1100 Series, Hewlett Packard., Heated autosampler • Analytical column: Synergi 4 u Hydro C18, 4.6 mm×5.0 cm, PHENOMENEX® • Column temperature: 40° C. • Autosampler temp: 37° C. • Flow rate: 1.0 mL/min • Injection Volume: 10 μL • Mobile Phase: A: Acetonitrile • B: 0.1% Phosphoric acid in water • Run Time: 14.0 minutes Typical LCMS parameters are shown below: • LC-MS System: Surveyor HPLC system, ThermoFinnigan LCQ Deca XP Max (Ion trap) • Analytical column: Synergi 4 u Hydro C18, 4.6 mm×5.0 cm, PHENOMENEX® • Column temperature: 40° C. • Autosampler temp: 22° C. • Flow rate: 1.0 mL/min • Injection Volume: 5 μL • Mobile Phase: A: 95% Acetonitrile/5% 20 mM Ammonium Acetate • B: 5% Acetonitrile/95% 20 mM Ammonium Acetate LCQ Parameters: • Sheath Flow Rate: 81.64 • Aux/Sweep Flow Rate: 19.01 • Current (uA): 10.89 • Voltage (kV): 5.00 • Capillary (C): 348.10 • Capillary Voltage (V): 30.44

[1] = Thermodynamic Equilibrium Aqueous Solubility Assay; format: physicochemical; details: thermodynamic from solid
Description: Standards Preparation: The calibration standard was prepared by accurately weighing 0.5-0.7 mg of sample in 5 ml of methanol. If the material was not fully soluble in methanol, other solvents such as DMSO or mixed solvents were used.
Test Sample Preparation: An excess amount of powder prodrug was equilibrated with 1 mL of buffer (50 mM potassium phosphate, pH 6.5 and 50 mM sodium acetate, pH 4.0) in a 2 mL glass vial. The solution was sonicated and vortexed for ˜30 seconds. The vials were shaken at 300 rpm at room temperature for 24 hrs. The exact incubation time for a specific prodrug was based on the prior aqueous stability data. If the compound was stable in the buffer up to 24 hrs, then the solubility was measured after 24 hrs, otherwise kinetic solubility data was reported. The final saturated solution was then transferred to a 1.5 mL Eppendorf tube and centrifuged for ˜2 min. at 10000 rpms. The supernatant from the saturated solution was transferred to a glass HPLC vial and the solubility was analyzed by HPLC using a four point calibration curve.

[2] = potassium phosphate buffer with 30% acetonitrile, pH 6.5, read-out: Stability (t1/2, h) pH 6.5 (converted)
[3] = sodium acetate buffer with 30% acetonitrile, pH 4, read-out: Stability (t1/2, h) pH 4.0 (converted)
[4] = potassium phosphate buffer, pH 6.5, aqueous buffer, read-out: Solubility (mg/mL) pH 6.5
[5] = sodium acetate buffer, pH 4, aqueous buffer, read-out: Solubility (mg/mL) pH 4.0

SMILES	half-life (Solution Stability Assay; [2])	half-life (Solution Stability Assay; [3])	solubility at 24 h [1, 4]	solubility at 24 h [1, 5]
CN1C(=O)[C@@H](NC(=O)[C@H](CCC(F)(F)F)[C@H](CCC(F)(F)F)C(=O)NCN2CCCCC2)N=C(c2ccccc2)c2ccccc21 [Example 16, (2R,3S)—N-((3S)-1-Methyl-2-oxo-5-phenyl-2,3-dihydro-1H-1,4-benzodiazepin-3-yl)-N′-(1-piperidinylmethyl)-2,3-bis(3,3,3-trifluoropropyl)succinamide]	16 h	250 h	0.01 mg/mL (≈ 15.3 µM)	0.23 mg/mL (≈ 352 µM)
CN1C(=O)[C@@H](NC(=O)[C@H](CCC(F)(F)F)[C@H](CCC(F)(F)F)C(=O)NCN2CCCC2)N=C(c2ccccc2)c2ccccc21 [Example 22, (2R,3S)—N-((3S)-1-Methyl-2-oxo-5-phenyl-2,3-dihydro-1H-1,4-benzodiazepin-3-yl)-N′-(1-pyrrolidinylmethyl)-2,3-bis(3,3,3-trifluoropropyl)succinamide]	7 h	–	0.03 mg/mL (≈ 46.9 µM)	> 0.39 mg/mL
CN1C(=O)[C@@H](NC(=O)[C@H](CCC(F)(F)F)[C@H](CCC(F)(F)F)C(=O)NCN2CCC(N(C)C)C2)N=C(c2ccccc2)c2ccccc21 (stereo partly drawn) [Example 21, (2S,3R)—N-((3-(Dimethylamino)-1-pyrrolidinyl)methyl)-N′-((3S)-1-methyl-2-oxo-5-phenyl-2,3-dihydro-1H-1,4-benzodiazepin-3-yl)-2,3-bis(3,3,3-trifluoropropyl)succinamide]	376 h	334 h	0.63 mg/mL (≈ 923 µM)	0.64 mg/mL (≈ 937 µM)
CN1C(=O)[C@@H](NC(=O)[C@H](CCC(F)(F)F)[C@H](CCC(F)(F)F)C(=O)NCN2CCC(N(C)C)CC2)N=C(c2ccccc2)c2ccccc21 [Example 18, (2S,3R)—N-((4-(Dimethylamino)-1-piperidinyl)methyl)-N′-((3S)-1-methyl-2-oxo-5-phenyl-2,3-dihydro-1H-1,4-benzodiazepin-3-yl)-2,3-bis(3,3,3-trifluoropropyl)succinamide]	> 500 h	> 500 h	> 1.05 mg/mL	0.29 mg/mL (≈ 416 µM)
CC(C)CNCNC(=O)[C@@H](CCC(F)(F)F)[C@@H](CCC(F)(F)F)C(=O)N[C@H]1N=C(c2ccccc2)c2ccccc2N(C)C1=O [Example 10, (2S,3R)—N-((Isobutylamino)methyl)-N′-((3S)-1-methyl-2-oxo-5-phenyl-2,3-dihydro-1H-1,4-benzodiazepin-3-yl)-2,3-bis(3,3,3-trifluoropropyl)succinamide]	32 h	–	< 0.001 mg/mL	> 0.27 mg/mL
CC(C)(N)C(=O)OCN1C(=O)[C@@H](NC(=O)[C@H](CCC(F)(F)F)[C@H](CCC(F)(F)F)C(N)=O)N=C(c2ccccc2)c2ccccc21 [Example 4, ((3S)-3-(((2R,3S)-3-Carbamoyl-6,6,6-trifluoro-2-(3,3,3-trifluoropropyl)hexanoyl)amino)-2-oxo-5-phenyl-2,3-dihydro-1H-1,4-benzodiazepin-1-yl)methyl 2-methylalaninate]	8 h	64 h	> 1.07 mg/mL	> 3.23 mg/mL
NC(=O)[C@@H](CCC(F)(F)F)[C@@H](CCC(F)(F)F)C(=O)N[C@H]1N=C(c2ccccc2)c2ccccc2N(COC(=O)c2ccc(COP(=O)(O)O)cc2)C1=O [Example 2, ((3S)-3-(((2R,3S)-3-Carbamoyl-6,6,6-trifluoro-2-(3,3,3-trifluoropropyl)hexanoyl)amino)-2-oxo-5-phenyl-2,3-dihydro-1H-1,4-benzodiazepin-1-yl)methyl 4-((phosphonooxy)methyl)benzoate]	> 500 h	> 500 h	0.42 mg/mL (≈ 534 µM)	0.99 mg/mL (≈ 1260 µM)
C[C@H](N)C(=O)OCN1C(=O)[C@@H](NC(=O)[C@H](CCC(F)(F)F)[C@H](CCC(F)(F)F)C(N)=O)N=C(c2ccccc2)c2ccccc21 [Example 5, ((3S)-3-(((2R,3S)-3-Carbamoyl-6,6,6-trifluoro-2-(3,3,3-trifluoropropyl)hexanoyl)amino)-2-oxo-5-phenyl-2,3-dihydro-1H-1,4-benzodiazepin-1-yl)methyl L-alaninate]	5 h	92 h	3.2 mg/mL (≈ 4970 µM)	2.3 mg/mL (≈ 3570 µM)
CN1C(=O)[C@@H](NC(=O)[C@H](CCC(F)(F)F)[C@H](CCC(F)(F)F)C(=O)NSCCN)N=C(c2ccccc2)c2ccccc21 [Example 11, (2S,3R)—N-((2-Aminoethyl)sulfanyl)-N′-((3S)-1-methyl-2-oxo-5-phenyl-2,3-dihydro-1H-1,4-benzodiazepin-3-yl)-2,3-bis(3,3,3-trifluoropropyl)succinamide]	29 h	215 h	> 3.4 mg/mL	> 2.67 mg/mL
CN1C(=O)[C@@H](NC(=O)[C@H](CCC(F)(F)F)[C@H](CCC(F)(F)F)C(=O)NCN2CCC(O)CC2)N=C(c2ccccc2)c2ccccc21 [Example 19, (2S,3R)—N-((4-Hydroxy-1-piperidinyl)methyl)-N′-((3S)-1-methyl-2-oxo-5-phenyl-2,3-dihydro-1H-1,4-benzodiazepin-3-yl)-2,3-bis(3,3,3-trifluoropropyl)succinamide]	56 h	> 500 h	> 1.42 mg/mL	0.97 mg/mL (≈ 1450 µM)
CN1C(=O)[C@@H](NC(=O)[C@H](CCC(F)(F)F)[C@H](CCC(F)(F)F)C(=O)NCN2CCC(O)C2)N=C(c2ccccc2)c2ccccc21 (stereo partly drawn) [Example 20, (2S,3R)—N-((3-Hydroxy-1-pyrrolidinyl)methyl)-N′-((3S)-1-methyl-2-oxo-5-phenyl-2,3-dihydro-1H-1,4-benzodiazepin-3-yl)-2,3-bis(3,3,3-trifluoropropyl)succinamide]	15 h	97 h	0.39 mg/mL (≈ 595 µM)	0.43 mg/mL (≈ 656 µM)
NCCSNC(=O)[C@@H](CCC(F)(F)F)[C@@H](CCC(F)(F)F)C(=O)N[C@H]1N=C(c2ccccc2)c2ccccc2NC1=O [Example 8, (2S,3R)—N-((2-Aminoethyl)sulfanyl)-N′-((3S)-2-oxo-5-phenyl-2,3-dihydro-1H-1,4-benzodiazepin-3-yl)-2,3-bis(3,3,3-trifluoropropyl)succinamide]	334 h	> 500 h	> 0.47 mg/mL	0.52 mg/mL (≈ 842 µM)
NC(=O)[C@@H](CCC(F)(F)F)[C@@H](CCC(F)(F)F)C(=O)N[C@H]1N=C(c2ccccc2)c2ccccc2N(COC(=O)Cc2ccc(OP(=O)(O)O)cc2)C1=O [Example 1, ((3S)-3-(((2R,3S)-3-Carbamoyl-6,6,6-trifluoro-2-(3,3,3-trifluoropropyl)hexanoyl)amino)-2-oxo-5-phenyl-2,3-dihydro-1H-1,4-benzodiazepin-1-yl)methyl (4-(phosphonooxy)phenyl)acetate]	> 500 h	> 500 h	> 1.22 mg/mL	0.01 mg/mL (≈ 12.7 µM)
NC(=O)[C@@H](CCC(F)(F)F)[C@@H](CCC(F)(F)F)C(=O)N[C@H]1N=C(c2ccccc2)c2ccccc2N(COC(=O)C2(N)CC2)C1=O [Example 7, ((3S)-3-(((2R,3S)-3-Carbamoyl-6,6,6-trifluoro-2-(3,3,3-trifluoropropyl)hexanoyl)amino)-2-oxo-5-phenyl-2,3-dihydro-1H-1,4-benzodiazepin-1-yl)methyl 1-aminocyclopropanecarboxylate]	> 500 h	> 500 h	2.09 mg/mL (≈ 3190 µM)	1.78 mg/mL (≈ 2720 µM)
